In series [1] the test system is LPS-stimulated peripheral blood mononuclear cell (PBMC). As to the kind of experiment: Regulation of cytokine profile in LPS-stimulated PBMC (BioPlex / ELISA). It is filed as cell-based, human. Conditions: for IL-10 production (ELISA) / IL-12p70 production (ELISA): PBMC pretreated 2 hours at various concentrations, 100 ng/mL LPS, supernatant 24 hours after LPS. From the text:
A peripheral blood mononuclear cell (PBMC) was separated from blood collected from a healthy volunteer (HV) and a chronic hepatitis B patient by a concentration gradient method. CD3+ T cell, CD19+B cell, CD56+NK cell, and CD14+ monocyte were respectively separated using magnetic antibodies.

The test system of series [2] is liver cancer cell lines (HepG2, PLC/PRF/5, Huh7, Hep3B, SKHep-1, HLE). In words: Antitumor effect in liver cancer cell lines, intracellular ATP amount (CellTiter-Glo). It counts as cell-based. Conditions: cultured 72 hours, all of the cell lines; FIG. 12.
Series [3] concerns human liver cancer cell line (HepG2). As to the kind of experiment: Phosphorylation of mTOR pathway proteins in HepG2 (western blot). It is filed as cell-based. Conditions: for phosphorylation of Akt and S6K and 4-EBP downstream thereof: HepG2, western blot. The procedure: After culturing the human liver cancer cell line (HepG2) in LAM, ETV, ADV, and TDF, phosphorylation of Akt in the mTOR pathway and S6K and 4-EBP downstream thereof was analyzed by western blot. Then, the phosphorylation of the above-mentioned proteins was suppressed in ADV and TDF in a dose-dependent manner, but there was no change in LAM and ETV.
Background: In western blotting, separated proteins are transferred to a membrane and probed.

In the next series the test system is HepG2. As to the kind of experiment: Subcutaneous HepG2 tumor in immunodeficient mice (NOD-SCID). It counts as in vivo, mouse. The note with it: 90 mg/kg intraperitoneally every 3 days; for subcutaneous tumor diameter: measured 6 weeks after, vs DMSO group, p<0.05 or p<0.005, data not disclosed. The procedure:
90 mg/kg of DMSO (negative control), ETV, ADV, and TDF were intraperitoneally administered to 6-week-old immunodeficient mice (NOD-SCID), respectively (5 animals in each of the groups), HepG2 (5×10^6 cells) was subcutaneously administered 1 week after the start of administration, and the subcutaneous tumor diameter was measured 6 weeks thereafter. Each drug was intraperitoneally administered every 3 days from the start to the end of observation.

The next series deals with Akt1 (Homo sapiens, UniProt P31749). In words: Surface plasmon resonance analysis of binding to Akt. Conditions: Akt1 fixed on CM5 sensor chip, 25° C.; FIG. 7C. The procedure:
The binding affinity of the peptide for the compound was analyzed using a surface plasmon resonance biosensor (Biacore X 100, GE Healthcare). Akt1 or BSA was fixed on the surface of a CM5 sensor chip using an amine coupling kit (GE Healthcare). Compounds at different concentrations, which were diluted with phosphate buffered saline containing 5% DMSO (10 mM phosphate buffer, 2.7 mM KCl, 137 mM NaCl, 0.05% surfactant P20, pH 7.4), were injected into the sensor chip at a flow rate of 20 μL/min at 25° C. for 120 seconds, and subsequently a buffer solution not containing the compounds was applied for 180 seconds. Kinetic parameters were determined by subtracting the bulk effect of DMSO using a reference flow cell and analyzing the data using Biacore X100 evaluation software (GE Healthcare).
(In general: SPR reads the build-up and loss of mass on a sensor chip optically.)

For series [4], the system named is Akt. In words: Phosphorylation of Akt in LPS-stimulated CD14+ monocyte (western blot). It counts as cell-based, human. Conditions: 100 ng/mL LPS.
For another series, the system named is ERK. The note with it: CD14+ monocyte, 10 μM, 2 hours, 100 ng/mL LPS, 30 minutes after LPS; FIG. 4B.
Series [5] has as its system Akt. In words: Phosphorylation of Akt in LPS-stimulated PBMC (western blot). It counts as cell-based, human. The note with it: various concentrations, cell recovered 2 hours after LPS, FIG. 7E.
The subject of the next series is GSK-3β. In words: Phosphorylation of GSK-3β in LPS-stimulated CD14+ monocyte (western blot). It is filed as cell-based, human. Conditions: 2 hours treatment, 100 ng/mL LPS, 2 hours after LPS, FIG. 4E.
For series [6], the system named is HT1080 cell stably expressing Akt 2-PH-EGFP. In words: Transition of Akt to the cell membrane, fluorescent immunochemical staining / confocal microscope. It is filed as cell-based. The note with it: treated 2 hours, FIG. 7B. Here is the method: AKT2-PH-EGFP tagged with HA was inserted into a pCSII-EF1α-MCS-IRES2-Blasticidin lentivirus vector. The lentivirus was infected with a HT1080 cell, and the cell was cultured in a DMEM solution containing […] of blasticidin. For observation of the intracellular migration of PH-EGFP, phosphorylated Akt, and Akt-PH-EGFP, after culturing HT1080 cell expressing each of them on a cover glass with DMSO, LAM, ADV, ETV, and TDF for 2 hours, the cell was fixed with 3.7% formalin, and thereafter nuclear staining of phosphorylated AKt (S473) and DAPI were performed to observe under a microscope.

The test system of the next series is PTEN. As to the kind of experiment: PTEN and pPTEN expression in CD14+ monocyte (western blot of cytosol and nuclear fractions). It counts as cell-based, human. Conditions: pretreated 2 hours, FIG. 9. The source says:
The results obtained by further fractionating the cell into a cytosol fraction and a nuclear fraction, and performing western blot analysis on each of the obtained fractions are shown. Poly-ADP-ribose polymerase (PARP) is the internal control of a nuclear protein, and β-actin is the internal control of the cytosol fraction. The number n is at least 3.
For the separation of the cytoplasm and the cell membrane, a MEM-PERTMPlus cell membrane protein extraction kit was used, and the protocol indicated by the product was followed. Briefly speaking, the collected cell was washed and then reacted with a buffer (to perforate the cell membrane) at 4° C. for 10 minutes. After centrifuging at 16,000 g for 15 minutes, the supernatant was collected in a new tube (cytoplasmic component). The precipitate (cell membrane) in the tube in the previous step was washed once with the above-mentioned buffer, and then reacted with a cell membrane melting buffer at 4° C. for 30 minutes while occasionally applying vibration. Thereafter, after centrifuging at 16,000 g for 15 minutes, the supernatant was collected in a new tube (cell membrane component). The cytoplasmic and nuclear components were separated using a cytoplasm/nuclear extraction kit. […]

Series [7] relates to CD14+ monocyte transfected with rictor siRNA. In words: IL-10 production in CD14+ monocyte after silencing rictor (mTORC2) by siRNA. It is filed as cell-based, human. Conditions: pretreated 2 hours, 100 ng/mL LPS, ELISA 24 hours after LPS, FIG. 10. The procedure:
The results of confirming the expression levels of rictor, raptor, and β-actin 48 hours after transfection are shown. […] Chemically synthesized nucleotide siRNA including control siRNA was obtained from Santa Cruz (Dallas, Tex., USA). A cell was transfected with siRNA using a Nucleofector kit (Lonza, Cologne, Germany).
(In general: An ELISA detects its analyte on a solid surface through an enzyme-linked reagent.)

Series [8] relates to mouse liver cancer cell lines (MHCF1 and MHCF5) and a mouse colon cancer cell line (CMT-93). In words: Phosphorylation of Akt and GSK-3β in mouse cancer cell lines (western blot). It is filed as cell-based. The note with it: MHCF1, MHCF5 and CMT-93, western blotting; data not disclosed.
The next series relates to IFN-λ3. The note with it: hepatitis B patients taking the drug; cited from earlier work.
Another series deals with intestinal cell. The note with it: in vitro system; cited from earlier work.
The subject of a further series is p70S6K. In words: Phosphorylation of p70S6K in LPS-stimulated CD14+ monocyte (western blot). Conditions: 100 ng/mL LPS, cell collected 2 hours after LPS, FIG. 4C.
The next series has as its system LPS-stimulated PBMC. The note with it: PBMC treated ex vivo with nucleic acid analog, IFN-α and LPS; FIG. 2.
For series [9], the system named is phosphatidylinositol-3 kinase and phosphoinositide-dependent kinase 1. In words: Phosphorylation of proteins upstream of Akt in LPS-stimulated CD14+ monocyte (western blot). The note with it: pretreated 2 hours, 100 ng/mL LPS, 2 hours after LPS, FIG. 7A.
Protocol: An Akt inhibitor 2 (Akt-1/2) and bovine serum albumin (BSA) were respectively used as a positive control and a negative control.
The phosphorylation of several proteins upstream of Akt, such as phosphatidylinositol-3 kinase and phosphoinositide-dependent kinase 1, was analyzed.
Another series relates to MSK-1. As to the kind of experiment: Phosphorylation of MSK-1 in LPS-stimulated CD14+ monocyte (western blot). The note with it: 10 μM, 2 hours, 100 ng/mL LPS, 30 minutes after LPS, FIG. 4B.
[10] abbreviates: PBMC from HV, pretreated 2 hours with nucleic acid analog, then LPS, BioPlex cytokine assay, FIG. 1A.

The values below come from US20220143050A1, “mTOR Inhibitor” (priority 2019, published 2022).

Counter-ions that a name gives are not always drawn.

Sequence of Akt1 (P31749 whole entry): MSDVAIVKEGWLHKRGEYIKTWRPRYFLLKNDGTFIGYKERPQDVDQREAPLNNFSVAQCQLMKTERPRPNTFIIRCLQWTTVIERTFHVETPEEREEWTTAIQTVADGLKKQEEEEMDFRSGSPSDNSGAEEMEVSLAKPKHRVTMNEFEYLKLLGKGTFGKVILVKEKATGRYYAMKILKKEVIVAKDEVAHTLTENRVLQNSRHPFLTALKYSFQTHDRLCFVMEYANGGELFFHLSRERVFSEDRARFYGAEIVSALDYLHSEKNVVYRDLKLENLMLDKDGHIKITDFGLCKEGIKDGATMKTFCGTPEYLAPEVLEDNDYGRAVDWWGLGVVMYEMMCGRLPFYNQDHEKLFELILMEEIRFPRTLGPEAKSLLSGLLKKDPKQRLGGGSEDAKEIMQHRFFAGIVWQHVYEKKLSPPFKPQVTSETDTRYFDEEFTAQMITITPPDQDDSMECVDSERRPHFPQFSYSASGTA

Take `C=C1[C@H](CO)[C@@H](O)C[C@@H]1n1cnc2c(=O)[nH]c(N)nc21` [ETV, entecavir]: the “LPS-induced cytokine production (IL-10, IL-12p70, and TNF-α) compared with DMSO” value in [1] (setting [10]) was “only the same effect as that of DMSO”. Besides, in series [2], the “number of a survived cell (intracellular ATP amount)” value is reported as “not recognized”. The “phosphorylation of Akt and S6K and 4-EBP downstream thereof” value in [3] is “no change”. For the same compound, the subcutaneous tumor diameter result in the series on HepG2 is on record as “not different”.

On to `C[C@H](Cn1cnc2c(N)ncnc21)OCP(=O)(O)OP(=O)(O)O` [TFV, tenofovir monophosphate], for which the “binding to the Akt protein (surface plasmon resonance biosensor)” value on Akt1 is “bound to the Akt protein in a dose-dependent manner”.

In the case of `NC(=O)c1ncn([C@@H]2O[C@H](CO)[C@@H](O)[C@H]2O)c1N` [AICAR, 5-Aminoimidazole-4-carboxamide-1-β-D-ribofuranoside], in series [1], the “IL-10 production (ELISA)” value is “inhibited” and the “IL-12p70 production (ELISA)” value is recorded as “induced”. For the same compound, the “phosphorylation of Akt” value in the series on Akt [4] (CD14+ monocyte pretreated 2 hours at various concentrations, 2 hours after LPS, FIG. 11B) is “enhanced phosphorylation of Akt in a dose-dependent manner”.

Consider `N#CC(=C(/N)Sc1ccccc1N)/C(C#N)=C(\N)Sc1ccccc1N` [U0126], for which the “phosphorylation of ERK” value with ERK was “inhibited”.

For the compound `CCCCCCCCCCCCCCCCCCOP(=O)([O-])OC1CC[N+](C)(C)CC1` [perifosine], in series [1], the “IL-10 production (ELISA)” value was “decreased” and the “IL-12p70 production (ELISA)” value is on record as “increased”. Besides, in the series with Akt [5], the “phosphorylation of Akt” value is “inhibited phosphorylation of Akt in a dose-dependent manner”.

In the case of `CC(C)OC(=O)OCOP(=O)(CO[C@H](C)Cn1cnc2c(N)ncnc21)OCOC(=O)OC(C)C` [TDF, tenofovir disoproxil fumarate], the “dose dependence of the regulation of IL-12p70, IL-10 and TNF-α” value in series [1] (LPS-stimulated PBMC, 1:3 dilution, FIG. 1C) was “dose dependent”. In series [1] (setting [10]), the “LPS-induced IL-10 production” value is recorded as “inhibited”, the “LPS-induced IL-12p70 production” value is recorded as “significantly induced” and the “LPS-induced TNF-α production” value was “significantly induced”. For the same compound, the “phosphorylation of Akt, dose dependence” value in the series on Akt [4] (CD14+ monocyte, 1:3 dilution, FIG. 4D) was “inhibited the phosphorylation of Akt in a dose-dependent manner”. For the same compound, in the series on Akt [4] (CD14+ monocyte, cell collected 2 hours after LPS, FIG. 4C), the “phosphorylation of Akt” value is “inhibited”. Further, the “phosphorylation of GSK-3β” value with GSK-3β is reported as “inhibited”. Also, the “transposition of Akt-PH to the cell membrane” value in [6] (HT1080 cell, confocal microscope) was “significantly inhibited”. Also, the “phosphorylation of Akt (Ser 473) in HT-1080 cell” value in series [6] (HT-1080 cell, anti-phospho-Akt staining) is reported as “inhibited”. The “PTEN or pPTEN expression level” value with PTEN was “did not affect”. Also, the “restoration of the decrease in IL-10 levels by silencing rictor” value in [7] was “not restored”. Besides, in series [2], the “number of a survived cell (intracellular ATP amount)” value was “significantly reduced”. In series [3], the “phosphorylation of Akt and S6K and 4-EBP downstream thereof” value was “suppressed”. The “phosphorylation of mTOR-related protein (Akt and GSK-3β (S9))” value in series [3] (HepG2 cell, western blotting, data not disclosed) was “suppressed”. Further, the “phosphorylation of mTOR-related protein (Akt and GSK-3β (S9))” value in series [8] was “not recognized”. Also, in the series with HepG2, the “tumor growth in one example of the group” value was “did not grow at all” and the subcutaneous tumor diameter entry was “suppressed”. Also, the “serum IFN-λ3 value” in the series on IFN-λ3 was “high value”. In the series with intestinal cell, the IFN-λ3 induction result was “induces”. In the series with p70S6K, the “phosphorylation of p70S6K” value is “inhibited”. For the same compound, the “LPS-mediated IL-12p70 production in combination with IFN-α” value in the series with LPS-stimulated PBMC was “synergistically enhanced”. For the same compound, in series [9], the “phosphorylation of proteins upstream of Akt (phosphatidylinositol-3 kinase and phosphoinositide-dependent kinase 1)” value is on record as “did not inhibit”.

With `Oc1ccc(-c2nc(-c3ccncc3)c(-c3ccc(F)cc3)[nH]2)cc1` [SB202198], the “phosphorylation of MSK-1” value with MSK-1 is on record as “inhibited”.
